Measurements reported in patent publication US12440567B2, “Aqueous antibody formulation stabilized by antioxidants for parenteral administration” (AMGEN INC., priority 2007, dated 2025).

Key:
[1] = test system: Antibody B binding to protein A; test: Binding of Antibody B to protein A after UV-B exposure of the formulation; conditions: 20 mM additive; pH 6.90 phosphate buffer; 0-24 hours UV-B
Method: (§1) For the examples below involving exposure to UVB radiation, each sample was exposed to UVB light (λ≈302 nm) for varying times, using a UVP 8W model UVLMS-38 lamp at 4° C. The formulations were then analyzed using size exclusion chromatography high pressure liquid chromatography (SEC-HPLC). Aggregation (measured via SEC-HPLC analysis) and binding (measured using CM5 gold sensor chips) were measured to determine the effect of the antioxidant on aggregation and bioactivity of the therapeutic protein.
The binding activity of therapeutic protein to a ligand (e.g. to an antibody or binding partner, or, in cases where the therapeutic was an antibody, binding activity to the specific target antigen or to protein A) was determined as follows. […] The therapeutic protein-binding ligand of interest was injected until the desired immobilization level was achieved (above 5000 response units). Three different therapeutic protein-binding ligands were measured—Antibody A's target antigen, Protein A, and D11 (an antibody that binds to erythropoietin). […] The remaining activated groups were blocked with 1.0 M ethanolamine-HCl, pH 8.5.
A standard curve was prepared by using native forms of the therapeutic protein of interest. Native forms of the therapeutic protein were diluted in HBS-EP buffer (pH 7.4) to concentrations between 1 and 5 μg/mL, and then injected on the column, prepared as described above to obtain a standard curve. At the end of each sample run, regeneration buffer was used to wash away any bound therapeutic protein in preparation for subsequent injections.
Various UV-stressed antibody formulations were also diluted in HBS-EP buffer (pH 7.4) to a concentration within the standard curve region, and injected to quantitate the loss of bioactivity to its respective ligand-binding partner.

EPO = test: SEC-HPLC aggregation/degradation of EPO after UV-B exposure; assay type: physicochemical, human; conditions: pH 6.90, 302 nm UV-B 24 hours
Method: as §1, with “protein. The SEC-HPLC conditions were as follows: a G3000 TOSOH SWXL column was used and the flowrate was set at 0.5 mL/min. […] FIG. 4 (EPO), FIG. 5 (anti-streptavidin), and FIG. 6 (Antibody A) show SEC-HPLC chromatograms of each proteins following exposure to 302 nm UV-B light for 24 hours. […] Each formulation was then exposed to 302 nm UV-B light for 24 hours. The protein formulation was then analyzed using SEC-HPLC.” for “protein.”

Antibody A = test: Discoloration (yellowing) of Antibody A formulations after UV-B exposure; assay type: physicochemical; conditions: UV-B light 24 hours
From the text: Discoloration can be assessed visually or by measurement of absorbance at a specific wavelength.
Proteins may also become yellow in color following exposure to UV light.
Pyridoxine is another water soluble B-vitamin (B6) which was studied as a possible antioxidant for preventing protein aggregation caused by UV-B exposure.

[2] = test system: Antibody A binding to its target antigen; test: Binding of Antibody A to its target antigen (CM5 sensor chip) after UV-B exposure of the formulation; conditions: 20 mM antioxidant; pH 5.20 acetate buffer; 302 nm UV light over 24 hours
Method: For the examples below involving exposure to UVB radiation, each sample was exposed to UVB light (λ≈302 nm) for varying times, using a UVP 8W model UVLMS-38 lamp at 4° C. The formulations were then analyzed using size exclusion chromatography high pressure liquid chromatography (SEC-HPLC). Aggregation (measured via SEC-HPLC analysis) and binding (measured using CM5 gold sensor chips) were measured to determine the effect of the antioxidant on aggregation and bioactivity of the therapeutic protein. The binding activity of therapeutic protein to a ligand (e.g. to an antibody or binding partner, or, in cases where the therapeutic was an antibody, binding activity to the specific target antigen or to protein A) was determined as follows. […] The therapeutic protein-binding ligand of interest was injected until the desired immobilization level was achieved (above 5000 response units). Three different therapeutic protein-binding ligands were measured—Antibody A's target antigen, Protein A, and D11 (an antibody that binds to erythropoietin). […] The remaining activated groups were blocked with 1.0 M ethanolamine-HCl, pH 8.5. […] Various UV-stressed antibody formulations were also diluted in HBS-EP buffer (pH 7.4) to a concentration within the standard curve region, and injected to quantitate the loss of bioactivity to its respective ligand-binding partner.

COc1cc(/C=C/C(=O)O)ccc1O [ferulic acid]
binding of Antibody B to protein A after UV-B exposure [1]: prevented UV-B induced degradation
amount of EPO dimer and aggregate caused by UV light (SEC-HPLC) (EPO; 0.1 mM antioxidant, 0.336 mg/mL EPO, 20 mM sodium phosphate): able to reduce the amount of EPO dimer and aggregate
prevention of EPO degradation compared with 10 mM methionine (SEC-HPLC) (EPO; 0.1 mM antioxidant, 0.336 mg/mL EPO): able to prevent EPO degradation more effectively than 10 mM methionine
amount of aggregate of EPO (SEC-HPLC) (EPO; 20 mM antioxidant, 1 mg/mL EPO, 25 mM sodium phosphate, 125 mM sodium chloride): dramatically reduced
yellowing of Antibody A formulation (Antibody A; 10 mM additive alone): no appreciable yellowing
yellowing of Antibody A formulation (Antibody A; 10 mM antioxidant in the presence of 10 mM methionine): no appreciable yellowing
binding of Antibody A to its target antigen after UV exposure [2]: preserved
